Earlier results, collected in patent US7235236B2, “Polynucleotide encoding human adenylylcyclase VI and uses thereof for enhancing cardiac function” (priority 1995, dated 2007).

System: GRK
Conditions: chronic reduction of beta1-AR activation

## CC(C)NCC(O)COc1ccc(COCCOC(C)C)cc1 (stereo not shown) [bisoprolol]
  GRK activity after chronic treatment: downregulation of GRK activity
